For test [1], the target named is Myosin light chain kinase, smooth muscle (Gallus gallus, UniProt P11799). Put plainly: In vitro for inhibitory activity against myosin light-chain kinase from chicken gizzard (M-kinase).
Test [2] concerns the target Protein kinase C (PKC). The test can be described thus: In vitro for inhibitory activity against protein kinase C from rat brain.
For test [3], the target named is T1, cGMP-dependent protein kinase 1 (Bos taurus, UniProt P00516).
T1 sequence (P00516 whole entry): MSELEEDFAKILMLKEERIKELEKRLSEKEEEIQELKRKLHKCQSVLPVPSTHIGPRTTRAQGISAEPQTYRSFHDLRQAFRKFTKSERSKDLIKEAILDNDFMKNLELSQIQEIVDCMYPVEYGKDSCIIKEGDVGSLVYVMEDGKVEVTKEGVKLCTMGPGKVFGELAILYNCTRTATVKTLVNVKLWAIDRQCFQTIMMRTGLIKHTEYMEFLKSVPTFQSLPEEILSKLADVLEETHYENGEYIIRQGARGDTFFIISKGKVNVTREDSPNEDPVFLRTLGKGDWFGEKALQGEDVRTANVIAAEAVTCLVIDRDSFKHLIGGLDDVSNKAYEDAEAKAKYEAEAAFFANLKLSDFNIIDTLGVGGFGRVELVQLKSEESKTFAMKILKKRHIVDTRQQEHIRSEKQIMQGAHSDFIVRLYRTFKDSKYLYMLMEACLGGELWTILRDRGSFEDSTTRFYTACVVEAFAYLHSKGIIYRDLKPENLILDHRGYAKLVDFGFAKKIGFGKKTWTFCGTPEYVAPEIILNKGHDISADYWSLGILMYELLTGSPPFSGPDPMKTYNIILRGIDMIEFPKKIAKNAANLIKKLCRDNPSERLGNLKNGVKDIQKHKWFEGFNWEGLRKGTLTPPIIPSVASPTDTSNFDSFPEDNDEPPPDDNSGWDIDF
Put plainly: In vitro for inhibitory activity against cGMP-dependent protein kinase from bovine lung (G-kinase).

Test [4] addresses cAMP-dependent protein kinase catalytic subunit alpha (Bos taurus, UniProt P00517). The test can be described thus: In vitro for inhibitory activity against cAMP-dependent protein kinase from bovine heart (A-kinase).
The test system of test [5] is Splenocyte. Put plainly: In vitro for inhibitory activity against tyrosine specific protein kinase from murine spleen cells (T-kinase). Type of test: functional, cell-based. Particulars: Mus musculus.

Sequence of Myosin light chain kinase, smooth muscle (P11799 whole entry): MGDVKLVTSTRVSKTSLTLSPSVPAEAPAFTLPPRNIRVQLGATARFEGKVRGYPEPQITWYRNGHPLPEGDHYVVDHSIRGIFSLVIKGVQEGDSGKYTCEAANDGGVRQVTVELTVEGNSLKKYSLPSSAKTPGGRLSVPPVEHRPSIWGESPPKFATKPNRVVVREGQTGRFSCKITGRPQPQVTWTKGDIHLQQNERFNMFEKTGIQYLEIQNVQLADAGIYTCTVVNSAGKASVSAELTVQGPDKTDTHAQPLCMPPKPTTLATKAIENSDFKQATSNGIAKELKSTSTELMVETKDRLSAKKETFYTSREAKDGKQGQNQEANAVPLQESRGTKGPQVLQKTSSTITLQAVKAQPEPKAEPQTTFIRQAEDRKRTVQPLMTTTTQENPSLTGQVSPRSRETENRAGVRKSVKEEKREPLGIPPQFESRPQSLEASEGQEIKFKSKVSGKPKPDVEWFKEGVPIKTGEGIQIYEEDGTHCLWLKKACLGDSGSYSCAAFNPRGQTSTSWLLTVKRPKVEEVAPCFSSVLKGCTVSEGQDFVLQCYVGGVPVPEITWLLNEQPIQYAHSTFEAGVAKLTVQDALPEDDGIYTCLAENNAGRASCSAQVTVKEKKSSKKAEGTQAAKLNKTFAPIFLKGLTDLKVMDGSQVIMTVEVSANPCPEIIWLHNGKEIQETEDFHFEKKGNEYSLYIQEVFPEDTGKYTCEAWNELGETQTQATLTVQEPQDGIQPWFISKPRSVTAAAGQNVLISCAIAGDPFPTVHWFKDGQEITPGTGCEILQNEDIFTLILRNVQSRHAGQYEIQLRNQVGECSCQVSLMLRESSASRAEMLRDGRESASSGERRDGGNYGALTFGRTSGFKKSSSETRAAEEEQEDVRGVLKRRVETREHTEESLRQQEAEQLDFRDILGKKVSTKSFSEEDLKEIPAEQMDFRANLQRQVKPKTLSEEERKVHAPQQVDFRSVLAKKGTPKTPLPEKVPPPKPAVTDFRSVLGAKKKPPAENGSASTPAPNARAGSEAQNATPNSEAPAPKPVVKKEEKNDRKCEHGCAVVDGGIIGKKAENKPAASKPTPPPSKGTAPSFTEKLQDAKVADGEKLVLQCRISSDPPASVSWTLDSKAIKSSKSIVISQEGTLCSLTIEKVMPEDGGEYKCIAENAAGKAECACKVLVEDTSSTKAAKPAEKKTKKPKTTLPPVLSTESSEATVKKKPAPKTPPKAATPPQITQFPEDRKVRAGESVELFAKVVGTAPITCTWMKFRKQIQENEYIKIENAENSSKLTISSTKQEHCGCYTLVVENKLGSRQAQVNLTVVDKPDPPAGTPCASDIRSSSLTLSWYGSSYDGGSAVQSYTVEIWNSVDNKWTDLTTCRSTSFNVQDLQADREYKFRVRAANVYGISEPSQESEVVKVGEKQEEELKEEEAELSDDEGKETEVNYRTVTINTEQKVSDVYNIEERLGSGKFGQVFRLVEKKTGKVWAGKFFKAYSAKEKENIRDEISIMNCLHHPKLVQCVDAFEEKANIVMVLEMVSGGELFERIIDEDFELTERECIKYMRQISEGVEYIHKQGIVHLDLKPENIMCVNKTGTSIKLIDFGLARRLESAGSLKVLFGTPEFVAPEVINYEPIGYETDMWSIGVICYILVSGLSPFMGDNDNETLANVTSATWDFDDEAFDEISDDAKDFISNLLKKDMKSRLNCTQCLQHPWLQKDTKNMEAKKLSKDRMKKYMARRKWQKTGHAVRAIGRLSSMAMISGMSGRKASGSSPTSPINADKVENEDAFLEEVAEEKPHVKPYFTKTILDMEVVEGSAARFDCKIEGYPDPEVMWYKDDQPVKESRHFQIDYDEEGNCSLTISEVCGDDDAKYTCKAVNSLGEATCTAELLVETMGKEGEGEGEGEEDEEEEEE

For orientation: IC50 means the concentration that inhibits the measured activity by half. A high value points to weaker potency. As for `O=C1NCc2c1c1c3ccccc3[nH]c1c1c2c2ccccc2n1CC(O)CO` (configuration not stated), the IC50 in test [1] was found to be 0.39 µM; in test [2], 0.099 µM; in test [3], 0.28 µM; in test [4], 4.8 µM.

For `N#CCCn1c2ccccc2c2c3c(c4c5ccccc5[nH]c4c21)C(=O)NC3`, the IC50 was 0.5 µM in test [1], 0.075 µM in test [2], 0.32 µM in test [3] and above 10 µM in test [4].

Turning to `CCCn1c2ccccc2c2c3c(c4c5ccccc5n(CCC)c4c21)C(=O)NC3`, in test [2], the IC50 worked out at 8.1 µM.

The compound `CC(C)=CCn1c2ccccc2c2c3c(c4c5ccccc5[nH]c4c21)C(=O)NC3` returned an IC50 in test [2] of 3.5 µM.

In the case of `CCn1c2ccccc2c2c3c(c4c5ccccc5n(CC)c4c21)C(=O)NC3`, the IC50 in test [1] was 1.2 µM; in test [2], 0.2 µM; in test [3] it was 0.7 µM; in test [4] it was above 10 µM.

Regarding `Cn1c2ccccc2c2c3c(c4c5ccccc5n(C)c4c21)C(=O)NC3`, the 50% inhibitory concentration (IC50) in test [1] was 5.8 µM; in test [2], 0.45 µM; in test [3], 5.5 µM; in test [4], above 100 µM.

Regarding `Cn1c2ccccc2c2c3c(c4c5ccccc5n(CC(F)F)c4c21)CNC3=O`, the IC50 was 0.44 µM in test [1]; 0.032 µM in test [2]; above 10 µM in test [5]; 0.71 µM in test [3]; 2.4 µM in test [4].

`CCn1c2ccccc2c2c3c(c4c5ccccc5n(CCC#N)c4c21)CNC3=O`: the concentration for half-maximal inhibition (IC50) in test [1] was 1.6 µM; in test [2], 0.027 µM; in test [5], above 10 µM; in test [3], 1.3 µM; in test [4], 6.3 µM.

On to `Cn1c2ccccc2c2c3c(c4c5ccccc5[nH]c4c21)C(=O)NC3`, for which the concentration for half-maximal inhibition (IC50) in test [1] was 1.1 µM; in test [2] it was 0.52 µM; in test [3], 0.4 µM; in test [4], above 10 µM.

With `O=C(O)CCn1c2ccccc2c2c3c(c4c5ccccc5[nH]c4c21)C(=O)NC3`, the concentration for half-maximal inhibition (IC50) in test [1] is 1.8 µM; in test [2], 0.59 µM; in test [3] it was 21 µM; in test [4] it was above 100 µM.

Consider `CCCn1c2ccccc2c2c3c(c4c5ccccc5n(C)c4c21)C(=O)NC3`, for which the half-maximal inhibitory concentration (IC50) is 11 µM in test [1]; 0.1 µM in test [2]; above 10 µM in test [5]; 5.1 µM in test [3]; above 30 µM in test [4].

`NC(=O)CCn1c2ccccc2c2c3c(c4c5ccccc5[nH]c4c21)C(=O)NC3`: the values for the half-maximal inhibitory concentration (IC50) in test [1] and in test [2] were 0.082 µM and 0.11 µM, respectively.

For the compound `Cn1c2ccccc2c2c3c(c4c5ccccc5n(CCCN=[N+]=[N-])c4c21)CNC3=O`, the IC50 came to 0.45 µM in test [1] and 0.025 µM in test [2].

For `CN1Cc2c(c3c4ccccc4n(C)c3c3c2c2ccccc2n3CCC#N)C1=O`, the IC50 in test [1] was above 10 µM; in test [2], above 30 µM; in test [5] it was above 10 µM; in test [3] it was above 30 µM; in test [4], above 30 µM.

Turning to `Cn1c2ccccc2c2c3c(c4c5ccccc5n(CCC#N)c4c21)CNC3=O` [GO-6976], the IC50 in test [5] was above 10 µM; in test [4], above 100 µM.

With `CN[C@@H]1C[C@H]2O[C@@](C)([C@@H]1OC)n1c3ccccc3c3c4c(c5c6ccccc6n2c5c31)C(=O)NC4` [STAUROSPORINE], the IC50 in test [5] is 0.4 µM.

Take `O=C1NCc2c1c1c3ccccc3[nH]c1c1[nH]c3ccccc3c21` [STAUROSPORINONE]: the IC50 is 2.8 µM in test [1], 0.68 µM in test [2], 0.65 µM in test [3] and above 10 µM in test [4].

Source of the values: ChEMBL document CHEMBL1151572, “Non-glycosidic/non-aminoalkyl-substituted indolocarbazoles as inhibitors of protein kinase C” (Bioorg Med Chem Lett, 1993).
